According to ChEMBL document CHEMBL4321810, “Structural Characterization of Agonist Binding to an A3 Adenosine Receptor through Biomolecular Simulations and Mutagenesis Experiments” (J Med Chem, 2019):
Substitutions are numbered along the chain they refer to. Calls of active or inactive are those of the source.

Tests used:
[1] = tested on: T1, Adenosine receptor A3 (Homo sapiens), P0DMS8 [S271A]
T1 sequence (whole entry): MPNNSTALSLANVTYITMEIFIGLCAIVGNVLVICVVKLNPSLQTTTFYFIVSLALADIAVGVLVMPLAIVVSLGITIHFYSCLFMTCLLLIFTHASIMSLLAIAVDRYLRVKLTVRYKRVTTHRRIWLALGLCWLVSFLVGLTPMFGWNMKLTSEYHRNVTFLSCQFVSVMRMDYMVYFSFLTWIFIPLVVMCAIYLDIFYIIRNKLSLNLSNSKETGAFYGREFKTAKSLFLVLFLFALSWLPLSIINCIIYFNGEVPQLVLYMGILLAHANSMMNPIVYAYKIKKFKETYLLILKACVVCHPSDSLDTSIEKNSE

[2] = tested on: T2, Adenosine receptor A3 (Homo sapiens), P0DMS8 [F168A]
T2 sequence (whole entry): T1 sequence (whole entry) with F168A, A271S

[3] = tested on: T3, Adenosine receptor A3 (Homo sapiens), P0DMS8 [H272A]
T3 sequence (whole entry): T1 sequence (whole entry) with A271S, H272A

[4] = tested on: T4, Adenosine receptor A3 (Homo sapiens), P0DMS8 [N250A]
T4 sequence (whole entry): T1 sequence (whole entry) with N250A, A271S

[5] = tested on: T5, Adenosine receptor A3 (Homo sapiens), P0DMS8 [L246A]
T5 sequence (whole entry): T1 sequence (whole entry) with L246A, A271S

[6] = species on record: Homo sapiens
[7] = tested on: T6, Adenosine receptor A3 (Homo sapiens), P0DMS8 [I268A]
T6 sequence (whole entry): T1 sequence (whole entry) with I268A, A271S

Measured: pIC50

CNC(=O)[C@H]1O[C@@H](n2cnc3c(NCc4cccc(I)c4)ncnc32)[C@H](O)[C@@H]1O
inactive: [1] | [2] | [3] | [4] | [5] | [6] | [7]

CCNC(=O)[C@H]1O[C@@H](n2cnc3c(N)ncnc32)[C@H](O)[C@@H]1O
inactive: [1] | [2] | [3] | [4] | [5] | [6] | [7]
